Entries after “also recorded” stand apart in the source; their conditions may differ.
Test system: TrkA-overexpressing PC12 cells
Test: Schwann cell conditioned media on TrkA-overexpressing PC12 cells
Type: cell-based
Settings: Schwann cells 1 μM GM-284 48 h; CM on PC12 72 h
Description: Wild-type and TrkA-overexpressing PC12 cells (Hempstead et al., Overexpression of the trk tyrosine kinase rapidly accelerates nerve growth factor-induced differentiation. Neuron, 9:883-96, 1992) were maintained in DMEM supplemented with 10% calf serum and 5% horse serum, the latter of which was also supplemented with 200 μg/ml G418 to maintain TrkA selection. Cultures were treated with 100 ng/ml NGF or the immunophilin ligands, or treated with Schwann-cell-conditioned medium supplemented with 5% horse serum, as indicated below. To generate GFP-expressing PC12 cells, a bicistronic pCX-bsr retroviral vector (Escalante et al., Phosphorylation of c-Crk II on the negative regulatory Tyr222 mediates nerve growth factor-induced cell spreading and morphogenesis. J. Biol. Chem., 275:24787-797, 2000), which drives expression of green fluorescent protein (GFP), was used to infect dividing PC12 cells.
To more directly examine the involvement of Schwann cells in mediating the neuritogenic capacities of GM-284, PC12 cells were infected with GFP-expressing retrovirus, and co-cultured on monolayers of Schwann cells, in the presence of either NGF, GM-284, or vehicle, for 48 h (FIG. 4B, panels a-c). […]

CCC(C)(C)C(=O)C(=O)N1CCC[C@H]1c1nnc([C@@H]2CCCN2C(=O)C(=O)C(C)(C)CC)o1 [GM-284]
neurite outgrowth induced by conditioned media from treated Schwann cells: promoted significant neurite outgrowth; also recorded: Neurite promotion was observed only in the GM-284-treated Schwann cells' conditioned media

— US20040266811A1, “Methods for inducing regeneration, remyelination, and hypermyelination of nervous tissue” (priority 2002, published 2004)
